Measurements: ChEMBL document CHEMBL2401670, “Synthesis and biological evaluation of rhodanine derivatives bearing a quinoline moiety as potent antimicrobial agents” (Bioorg Med Chem Lett, 2013)
≈ marks a conversion by molar mass, not a printed value.

What follows are compounds tested on Staphylococcus aureus (assay: Antibacterial activity against Staphylococcus aureus RN4220 after 24 hrs by broth microdilution method). Conditions: RN4220, 24 h.
Assay type: functional

| Structure (SMILES) | MIC [µg/mL] |
| --- | --- |
| O=C(O)[C@H](Cc1ccccc1)N1C(=O)/C(=C/c2cc3cc(OCc4ccccc4Cl)ccc3nc2Cl)SC1=S | 4 (≈ 6.72 µM) |
| O=C(O)[C@H](Cc1ccccc1)N1C(=O)/C(=C/c2cc3cc(OCc4cccc(Cl)c4)ccc3nc2Cl)SC1=S | 2 (≈ 3.36 µM) |
| COc1c(N2CCNC(C)C2)c(F)cc2c(=O)c(C(=O)O)cn(C3CC3)c12 (stereo not drawn) [GATIFLOXACIN] | 0.25 (≈ 0.666 µM) |
| COc1c(N2C[C@@H]3CCCN[C@@H]3C2)c(F)cc2c(=O)c(C(=O)O)cn(C3CC3)c12 [MOXIFLOXACIN] | 0.25 (≈ 0.623 µM) |
| CCn1cc(C(=O)O)c(=O)c2cc(F)c(N3CCNCC3)cc21 [NORFLOXACIN] | 2 (≈ 6.26 µM) |
| Cc1onc(-c2ccccc2)c1C(=O)N[C@@H]1C(=O)N2[C@@H]1SC(C)(C)[C@@H]2C(=O)O [OXACILLIN] | 1 (≈ 2.49 µM) |

The compounds below were run on Escherichia coli (assay: Antibacterial activity against Escherichia coli CCARM 1356 after 24 hrs by broth microdilution method). Conditions: CCARM 1356, 24 h.
Assay type: functional

| Structure (SMILES) | MIC [µg/mL] |
| --- | --- |
| O=C(O)[C@H](Cc1ccccc1)N1C(=O)/C(=C/c2cc3cc(OCc4ccccc4Cl)ccc3nc2Cl)SC1=S | > 64 |
| O=C(O)[C@H](Cc1ccccc1)N1C(=O)/C(=C/c2cc3cc(OCc4cccc(Cl)c4)ccc3nc2Cl)SC1=S | > 64 |
| COc1c(N2CCNC(C)C2)c(F)cc2c(=O)c(C(=O)O)cn(C3CC3)c12 (stereo not drawn) [GATIFLOXACIN] | 16 (≈ 42.6 µM) |
| COc1c(N2C[C@@H]3CCCN[C@@H]3C2)c(F)cc2c(=O)c(C(=O)O)cn(C3CC3)c12 [MOXIFLOXACIN] | > 64 |
| CCn1cc(C(=O)O)c(=O)c2cc(F)c(N3CCNCC3)cc21 [NORFLOXACIN] | 16 (≈ 50.1 µM) |
| Cc1onc(-c2ccccc2)c1C(=O)N[C@@H]1C(=O)N2[C@@H]1SC(C)(C)[C@@H]2C(=O)O [OXACILLIN] | > 64 |

Each compound was assayed on Staphylococcus aureus (assay: Antibacterial activity against quinolone-resistant Staphylococcus aureus CCARM 3519 after 24 hrs by broth microdilution method). Conditions: CCARM 3519, 24 h.
Assay type: functional

| Structure (SMILES) | MIC [µg/mL] |
| --- | --- |
| O=C(O)[C@H](Cc1ccccc1)N1C(=O)/C(=C/c2cc3cc(OCc4ccccc4Cl)ccc3nc2Cl)SC1=S | 2 (≈ 3.36 µM) |
| O=C(O)[C@H](Cc1ccccc1)N1C(=O)/C(=C/c2cc3cc(OCc4cccc(Cl)c4)ccc3nc2Cl)SC1=S | 2 (≈ 3.36 µM) |
| COc1c(N2CCNC(C)C2)c(F)cc2c(=O)c(C(=O)O)cn(C3CC3)c12 (stereo not drawn) [GATIFLOXACIN] | 4 (≈ 10.7 µM) |
| COc1c(N2C[C@@H]3CCCN[C@@H]3C2)c(F)cc2c(=O)c(C(=O)O)cn(C3CC3)c12 [MOXIFLOXACIN] | 4 (≈ 9.96 µM) |
| CCn1cc(C(=O)O)c(=O)c2cc(F)c(N3CCNCC3)cc21 [NORFLOXACIN] | > 64 |
| Cc1onc(-c2ccccc2)c1C(=O)N[C@@H]1C(=O)N2[C@@H]1SC(C)(C)[C@@H]2C(=O)O [OXACILLIN] | 1 (≈ 2.49 µM) |

These compounds were tested on Staphylococcus aureus (assay: Antibacterial activity against Staphylococcus aureus KCTC 209 after 24 hrs by broth microdilution method). Conditions: KCTC 209, 24 h.
Assay type: functional

| Structure (SMILES) | MIC [µg/mL] |
| --- | --- |
| O=C(O)[C@H](Cc1ccccc1)N1C(=O)/C(=C/c2cc3cc(OCc4ccccc4Cl)ccc3nc2Cl)SC1=S | 64 (≈ 107 µM) |
| O=C(O)[C@H](Cc1ccccc1)N1C(=O)/C(=C/c2cc3cc(OCc4cccc(Cl)c4)ccc3nc2Cl)SC1=S | 64 (≈ 107 µM) |
| COc1c(N2CCNC(C)C2)c(F)cc2c(=O)c(C(=O)O)cn(C3CC3)c12 (stereo not drawn) [GATIFLOXACIN] | 2 (≈ 5.33 µM) |
| CCn1cc(C(=O)O)c(=O)c2cc(F)c(N3CCNCC3)cc21 [NORFLOXACIN] | 2 (≈ 6.26 µM) |
| Cc1onc(-c2ccccc2)c1C(=O)N[C@@H]1C(=O)N2[C@@H]1SC(C)(C)[C@@H]2C(=O)O [OXACILLIN] | 1 (≈ 2.49 µM) |

The compounds below were run on Staphylococcus aureus (assay: Antibacterial activity against quinolone-resistant Staphylococcus aureus CCARM 3505 after 24 hrs by broth microdilution method). Conditions: CCARM 3505, 24 h.
Assay type: functional

| Structure (SMILES) | MIC [µg/mL] |
| --- | --- |
| O=C(O)[C@H](Cc1ccccc1)N1C(=O)/C(=C/c2cc3cc(OCc4ccccc4Cl)ccc3nc2Cl)SC1=S | 2 (≈ 3.36 µM) |
| O=C(O)[C@H](Cc1ccccc1)N1C(=O)/C(=C/c2cc3cc(OCc4cccc(Cl)c4)ccc3nc2Cl)SC1=S | 2 (≈ 3.36 µM) |
| COc1c(N2CCNC(C)C2)c(F)cc2c(=O)c(C(=O)O)cn(C3CC3)c12 (stereo not drawn) [GATIFLOXACIN] | 8 (≈ 21.3 µM) |
| CCn1cc(C(=O)O)c(=O)c2cc(F)c(N3CCNCC3)cc21 [NORFLOXACIN] | > 64 |
| Cc1onc(-c2ccccc2)c1C(=O)N[C@@H]1C(=O)N2[C@@H]1SC(C)(C)[C@@H]2C(=O)O [OXACILLIN] | 1 (≈ 2.49 µM) |

These compounds were tested on Staphylococcus aureus (assay: Antibacterial activity against methicillin-resistant Staphylococcus aureus CCARM 3506 after 24 hrs by broth microdilution method). Conditions: CCARM 3506, 24 h.
Assay type: functional

| Structure (SMILES) | MIC [µg/mL] |
| --- | --- |
| O=C(O)[C@H](Cc1ccccc1)N1C(=O)/C(=C/c2cc3cc(OCc4ccccc4Cl)ccc3nc2Cl)SC1=S | 2 (≈ 3.36 µM) |
| O=C(O)[C@H](Cc1ccccc1)N1C(=O)/C(=C/c2cc3cc(OCc4cccc(Cl)c4)ccc3nc2Cl)SC1=S | 2 (≈ 3.36 µM) |
| COc1c(N2CCNC(C)C2)c(F)cc2c(=O)c(C(=O)O)cn(C3CC3)c12 (stereo not drawn) [GATIFLOXACIN] | 1 (≈ 2.66 µM) |
| CCn1cc(C(=O)O)c(=O)c2cc(F)c(N3CCNCC3)cc21 [NORFLOXACIN] | 4 (≈ 12.5 µM) |
| Cc1onc(-c2ccccc2)c1C(=O)N[C@@H]1C(=O)N2[C@@H]1SC(C)(C)[C@@H]2C(=O)O [OXACILLIN] | > 64 |

Each compound was assayed on Staphylococcus aureus (assay: Antibacterial activity against Staphylococcus aureus KCTC 503 after 24 hrs by broth microdilution method). Conditions: KCTC 503, 24 h.
Assay type: functional

| Structure (SMILES) | MIC [µg/mL] |
| --- | --- |
| O=C(O)[C@H](Cc1ccccc1)N1C(=O)/C(=C/c2cc3cc(OCc4ccccc4Cl)ccc3nc2Cl)SC1=S | 8 (≈ 13.4 µM) |
| O=C(O)[C@H](Cc1ccccc1)N1C(=O)/C(=C/c2cc3cc(OCc4cccc(Cl)c4)ccc3nc2Cl)SC1=S | 8 (≈ 13.4 µM) |
| COc1c(N2CCNC(C)C2)c(F)cc2c(=O)c(C(=O)O)cn(C3CC3)c12 (stereo not drawn) [GATIFLOXACIN] | 4 (≈ 10.7 µM) |
| CCn1cc(C(=O)O)c(=O)c2cc(F)c(N3CCNCC3)cc21 [NORFLOXACIN] | 2 (≈ 6.26 µM) |
| Cc1onc(-c2ccccc2)c1C(=O)N[C@@H]1C(=O)N2[C@@H]1SC(C)(C)[C@@H]2C(=O)O [OXACILLIN] | 1 (≈ 2.49 µM) |

What follows are compounds tested on Staphylococcus aureus (assay: Antibacterial activity against methicillin-resistant Staphylococcus aureus CCARM 3167 after 24 hrs by broth microdilution method). Conditions: CCARM 3167, 24 h.
Assay type: functional

| Structure (SMILES) | MIC [µg/mL] |
| --- | --- |
| O=C(O)[C@H](Cc1ccccc1)N1C(=O)/C(=C/c2cc3cc(OCc4ccccc4Cl)ccc3nc2Cl)SC1=S | 2 (≈ 3.36 µM) |
| O=C(O)[C@H](Cc1ccccc1)N1C(=O)/C(=C/c2cc3cc(OCc4cccc(Cl)c4)ccc3nc2Cl)SC1=S | 2 (≈ 3.36 µM) |
| COc1c(N2CCNC(C)C2)c(F)cc2c(=O)c(C(=O)O)cn(C3CC3)c12 (stereo not drawn) [GATIFLOXACIN] | 2 (≈ 5.33 µM) |
| CCn1cc(C(=O)O)c(=O)c2cc(F)c(N3CCNCC3)cc21 [NORFLOXACIN] | 8 (≈ 25.1 µM) |
| Cc1onc(-c2ccccc2)c1C(=O)N[C@@H]1C(=O)N2[C@@H]1SC(C)(C)[C@@H]2C(=O)O [OXACILLIN] | > 64 |
